Reference: EP0641797A1, “Cephem derivatives and antimicrobial agents containing the same” (KATAYAMA SEIYAKUSYO CO. Ltd., priority 1993, dated 1995)
≈ marks a conversion by molar mass, not a printed value. Read-outs that look alike come from different tables or passages of the source.

Tests used:
Test in all cases: MIC on standard strains, standard method of Japan Society of Chemotherapy
Assay type in all cases: cell-based
P. mirabilis IFO 3849 = system: P. mirabilis IFO 3849
Method: (§1) Antimicrobial activity of the compounds of the present invention were measured using CTM (cefotiam) and FMOX (flomoxef) as control drugs in accordance with the standard method of Japan Society of Chemotherapy. Of the 25 standard strains used in this test, Staphylococcus aureus 167 and Staphylococcus aureus 195 belong to MRSA.
(§2) In these tables, drugs tested are shown by the corresponding examples in which they were synthesized.

S. epidemidis IAM 1296 = system: S. epidemidis IAM 1296
Method: as §1, §2

S. aureus 167 = conditions: Staphylococcus aureus; S. aureus 167 (MRSA)
Method: as §1, §2

E. coli CSH2(RK1) = conditions: Escherichia coli
Method: as §1, §2

C. freundii ATCC 8090 = conditions: Citrobacter freundii, ATCC8090, C. freundii ATCC 8090; read-out: MIC
Method: as §1, §2

M. morganii IFO 3848 = conditions: Morganella morganii, IFO3848
Method: as §1, §2

K. pneuminiae No. 42 = system: K. pneuminiae No. 42
Method: as §1, §2

E. coli CSH2(RE45) = system: E. coli CSH2(RE45)
Method: as §1, §2

P. cepacia = conditions: Burkholderia cepacia, read-out: MIC
Method: as §1, §2

K. pneuminiae IFO 3317 = system: K. pneuminiae IFO 3317
Method: as §1, §2

S. aureus Smith = system: S. aureus Smith
Method: as §1, §2

E. coli NHIJ JC-2 = conditions: Escherichia coli, NHIJJC2
Method: as §1, §2

B. subtilis ATCC 6633 = conditions: Bacillus subtilis, ATCC6633, B. subtilis ATCC 6633; read-out: MIC
Method: as §1, §2

S. marcescens No. 16-2 = conditions: Serratia marcescens, NO.162
Method: as §1, §2

P. aeruginosa AKR17 = conditions: Pseudomonas aeruginosa
Method: as §1, §2

E. cloacae ATCC 13407 = system: E. cloacae ATCC 13407
Method: as §1, §2

P. aeruginosa NCTC 10490 = system: P. aeruginosa NCTC 10490
Method: as §1, §2

P. vulugaris OX-19 = system: P. vulugaris OX-19
Method: as §1, §2

M. luteus ATCC 9341 = conditions: Micrococcus luteus, ATCC9341
Method: as §1, §2

S. marcescens IAM 1184 = system: S. marcescens IAM 1184
Method: as §1, §2

A. faecalis ATCC 3750 = system: A. faecalis ATCC 3750
Method: as §1, §2

S. aureus 209p JC-1 = system: S. aureus 209p JC-1
Method: as §1, §2

S. aureus 195 = conditions: Staphylococcus aureus; S. aureus 195 (MRSA)
Method: as §1, §2

A. calcoaceticos T59 = conditions: read-out: MIC
Method: as §1, §2

E. cloacae Nek39 = conditions: Enterobacter cloacae, NEK39, E. cloacae Nek39; read-out: MIC
Method: as §1, §2

[1] = Proteus mirabilis, IFO3849, P. mirabilis IFO 3849, read-out: MIC
[2] = Staphylococcus aureus, read-out: MIC
[3] = Enterobacter cloacae, ATCC13407, E. cloacae ATCC 13407, read-out: MIC
[4] = Pseudomonas aeruginosa, NCTC10490, P. aeruginosa NCTC 10490, read-out: MIC
[5] = Serratia marcescens, IAM1184, S. marcescens IAM 1184, read-out: MIC
[6] = Alcaligenes faecalis, ATCC3750, A. faecalis ATCC 3750, read-out: MIC
[7] = Staphylococcus aureus, 209P, read-out: MIC

Compound	MIC (P. mirabilis IFO 3849; [1])	MIC (S. epidemidis IAM 1296)	MIC (S. aureus 167)	MIC (E. coli CSH2(RK1))	MIC (C. freundii ATCC 8090)	MIC (M. morganii IFO 3848)	MIC (K. pneuminiae No. 42)	MIC (E. coli CSH2(RE45); Escherichia coli)	MIC (P. cepacia)	MIC (K. pneuminiae IFO 3317)	MIC (S. aureus Smith; [2])	MIC (E. coli NHIJ JC-2)	MIC (B. subtilis ATCC 6633)	MIC (S. marcescens No. 16-2)	MIC (P. aeruginosa AKR17)	MIC (E. cloacae ATCC 13407; [3])	MIC (P. aeruginosa NCTC 10490; [4])	MIC (P. vulugaris OX-19)	MIC (M. luteus ATCC 9341)	MIC (S. marcescens IAM 1184; [5])	other results
Nc1nc(/C(=N/O)C(=O)N[C@@H]2C(=O)N3C(C(=O)[O-])=C(C[n+]4ccc(-c5cncs5)cc4)CS[C@H]23)cs1 [Ex. 22, 7β-[2-(2-aminothiazol-4-yl)-2-syn-hydroxyiminoacetamido]-3-[4-(thiazol-5-yl)pyridinio]methyl-3-cephem-4-carboxylate]	0.1 µg/mL (≈ 0.184 µM)	0.1 µg/mL (≈ 0.184 µM)	1.56 µg/mL (≈ 2.87 µM)	0.2 µg/mL (≈ 0.368 µM)	0.1 µg/mL (≈ 0.184 µM)	0.025 µg/mL (≈ 0.046 µM)	0.1 µg/mL (≈ 0.184 µM)	0.1 µg/mL (≈ 0.184 µM)	> 100 µg/mL	0.05 µg/mL (≈ 0.092 µM)	0.2 µg/mL (≈ 0.368 µM)	0.1 µg/mL (≈ 0.184 µM)	0.2 µg/mL (≈ 0.368 µM)	25 µg/mL (≈ 46 µM)	> 100 µg/mL	0.78 µg/mL (≈ 1.43 µM)	3.13 µg/mL (≈ 5.76 µM)	0.1 µg/mL (≈ 0.184 µM)	0.025 µg/mL (≈ 0.046 µM)	0.1 µg/mL (≈ 0.184 µM)	MIC (A. faecalis ATCC 3750; [6]): 1.56 µg/mL (≈ 2.87 µM); MIC (S. aureus 209p JC-1; [7]): 0.2 µg/mL (≈ 0.368 µM); MIC (S. aureus 195): 0.78 µg/mL (≈ 1.43 µM); MIC (A. calcoaceticos T59): 12.5 µg/mL (≈ 23 µM); MIC (E. cloacae Nek39): 25 µg/mL (≈ 46 µM)
Nc1nc(/C(=N/O)C(=O)N[C@@H]2C(=O)N3C(C(=O)[O-])=C(C[n+]4ccc(-c5nccs5)cc4)CS[C@H]23)cs1 [Ex. 21, 7β-[2-(2-aminothiazol-4-yl)-2-syn-hydroxyiminoacetamido]-3-[4-(thiazol-2-yl)pyridinio]methyl-3-cephem-4-carboxylate]	0.2 µg/mL (≈ 0.368 µM)	0.1 µg/mL (≈ 0.184 µM)	3.13 µg/mL (≈ 5.76 µM)	0.2 µg/mL (≈ 0.368 µM)	0.1 µg/mL (≈ 0.184 µM)	0.05 µg/mL (≈ 0.092 µM)	0.2 µg/mL (≈ 0.368 µM)	0.1 µg/mL (≈ 0.184 µM)	> 100 µg/mL	0.1 µg/mL (≈ 0.184 µM)	0.39 µg/mL (≈ 0.717 µM)	0.1 µg/mL (≈ 0.184 µM)	0.2 µg/mL (≈ 0.368 µM)	50 µg/mL (≈ 92 µM)	> 100 µg/mL	1.56 µg/mL (≈ 2.87 µM)	6.25 µg/mL (≈ 11.5 µM)	0.1 µg/mL (≈ 0.184 µM)	0.025 µg/mL (≈ 0.046 µM)	0.1 µg/mL (≈ 0.184 µM)	MIC (A. faecalis ATCC 3750; [6]): 0.78 µg/mL (≈ 1.43 µM); MIC (S. aureus 209p JC-1; [7]): 0.2 µg/mL (≈ 0.368 µM); MIC (S. aureus 195): 1.56 µg/mL (≈ 2.87 µM); MIC (A. calcoaceticos T59): 12.5 µg/mL (≈ 23 µM); MIC (E. cloacae Nek39): 50 µg/mL (≈ 92 µM)
CN(C)CCn1nnnc1SCC1=C(C(=O)O)N2C(=O)[C@@H](NC(=O)Cc3csc(N)n3)[C@H]2SC1 [CTM, cefotiam, reference compound]	0.78 µg/mL (≈ 1.48 µM)	0.39 µg/mL (≈ 0.742 µM)	> 100 µg/mL	0.2 µg/mL (≈ 0.38 µM)	0.78 µg/mL (≈ 1.48 µM)	0.2 µg/mL (≈ 0.38 µM)	0.39 µg/mL (≈ 0.742 µM)	0.2 µg/mL (≈ 0.38 µM)	> 100 µg/mL	0.2 µg/mL (≈ 0.38 µM)	1.56 µg/mL (≈ 2.97 µM)	0.2 µg/mL (≈ 0.38 µM)	0.39 µg/mL (≈ 0.742 µM)	> 100 µg/mL	> 100 µg/mL	50 µg/mL (≈ 95.1 µM)	> 100 µg/mL	0.39 µg/mL (≈ 0.742 µM)	0.39 µg/mL (≈ 0.742 µM)	6.25 µg/mL (≈ 11.9 µM)	MIC (P. mirabilis IFO 3849; P. mirabilis IFO 3849): 0.39 µg/mL (≈ 0.742 µM); MIC (E. coli CSH2(RE45)): 0.39 µg/mL (≈ 0.742 µM); MIC (S. aureus Smith): 0.78 µg/mL (≈ 1.48 µM); MIC (E. cloacae ATCC 13407; E. cloacae ATCC 13407): >100 µg/mL; MIC (P. aeruginosa NCTC 10490; P. aeruginosa NCTC 10490): 100 µg/mL (≈ 190 µM); MIC (S. marcescens IAM 1184; S. marcescens IAM 1184): 3.13 µg/mL (≈ 5.95 µM); MIC (A. faecalis ATCC 3750; A. faecalis ATCC 3750): 3.13 µg/mL (≈ 5.95 µM); MIC (A. faecalis ATCC 3750; [6]): 6.25 µg/mL (≈ 11.9 µM); MIC (S. aureus 209p JC-1): 0.78 µg/mL (≈ 1.48 µM); MIC (S. aureus 209p JC-1; [7]): 1.56 µg/mL (≈ 2.97 µM); MIC (S. aureus 195): > 100 µg/mL; MIC (A. calcoaceticos T59): > 100 µg/mL; MIC (E. cloacae Nek39): > 100 µg/mL
